This note sets out measurements from PMC12102759 (Protein Science : A Publication of the Protein Society, 2025).

Some targets named below: NSP3 SUD-M (Severe acute respiratory syndrome coronavirus 2, UniProt P0DTC1); NSP3 ADRP (Severe acute respiratory syndrome coronavirus 2, UniProt P0DTC1); NSP3 UBl1 (Severe acute respiratory syndrome coronavirus 2, UniProt P0DTC1).
Holding throughout (assay): biochemical
What all share (type): binding, SARS‐CoV‐2

The Kd is the constant that tells how readily two partners part at equilibrium. Read a high Kd as lower affinity.

Residues, ends and D or L forms follow the SMILES beside them. *: point of attachment. FITC = O=C1OC2(c3ccc(O)cc3Oc3cc(O)ccc32)c2ccc(NC(=S)*)cc21

The molecule `CC(C)C[C@H](NC(=O)[C@H](CC(=O)O)NC(=O)[C@H](CCC(=O)O)NC(=O)[C@H](CCC(=O)O)NC(=O)[C@@H](NC(=O)[C@H](Cc1ccccc1)NC(=S)Nc1ccc2c(c1)C(=O)OC21c2ccc(O)cc2Oc2cc(O)ccc21)[C@@H](C)O)C(=O)N[C@@H](Cc1c[nH]cn1)C(=O)N[C@@H](Cc1ccccc1)C(=O)N[C@H](C(=O)N[C@@H](CC(C)C)C(=O)N[C@@H](Cc1ccc(O)cc1)C(=O)NCC(=O)N[C@H](C(=O)N[C@H](C(=O)N1CCC[C@H]1C(=O)N[C@@H](CO)C(=O)O)[C@@H](C)O)C(C)C)C(C)C` ({FITC}-FTEEDLHFVLYGVTPS-OH) displayed a Kd at NSP3 SUD-M of 19 µM.

At NSP3 ADRP, `CC[C@H](C)[C@H](NC(=O)CNC(=O)[C@H](CC(C)C)NC(=O)[C@H](CC(C)C)NC(=O)[C@H](CCC(=O)O)NC(=O)[C@H](CO)NC(=O)[C@H](CC(C)C)NC(=O)[C@@H]1CCCN1C(=O)[C@H](Cc1c[nH]cn1)NC(=O)[C@H](CC(C)C)NC(=O)[C@H](Cc1ccc(O)cc1)NC(=O)[C@@H](NC(=O)[C@H](CO)NC(=O)CNC(=S)Nc1ccc2c(c1)C(=O)OC21c2ccc(O)cc2Oc2cc(O)ccc21)[C@@H](C)O)C(=O)N1CCC[C@H]1C(=O)N[C@@H](CC(C)C)C(=O)O` ({FITC}-GSTYLHPLSELLGIPL-OH) registered a Kd of 50.8 µM.

In the case of `CC(C)C[C@H](NC(=O)[C@H](C)NC(=O)[C@H](CC(C)C)NC(=O)[C@H](Cc1ccc(O)cc1)NC(=O)[C@H](CC(C)C)NC(=O)[C@H](CCC(N)=O)NC(=O)[C@H](CC(=O)O)NC(=O)[C@H](CC(C)C)NC(=O)[C@H](CC(C)C)NC(=O)[C@H](C)NC(=O)CNC(=O)[C@H](CCC(=O)O)NC(=O)[C@H](CC(=O)O)NC(=O)[C@H](CO)NC(=S)Nc1ccc2c(c1)C(=O)OC21c2ccc(O)cc2Oc2cc(O)ccc21)C(=O)N[C@@H](CCCNC(=N)N)C(=O)N[C@@H](CC(N)=O)C(=O)O` ({FITC}-SDEGALLDQLYLALRN-OH), the Kd on NSP3 UBl1 was determined as 67 µM.
